Test results from PubChem BioAssay (NCI).
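Each compound was tested at five concentrations against cells in 96-well plates for 48 hours. TGI: total growth inhibition.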

What was measured:
Assay in all cases: NCI anticancer screen, dose series, 48 h
CAKI-1 renal = tested on: CAKI-1 renal
DMS 273 small cell lung = tested on: DMS 273 small cell lung
NCI-H522 lung = tested on: NCI-H522 lung
RXF-631 renal = tested on: RXF-631 renal
IGROV1 ovarian = tested on: IGROV1 ovarian
KM12 colon = tested on: KM12 colon
SK-MEL-28 melanoma = tested on: SK-MEL-28 melanoma
MALME-3M melanoma = tested on: MALME-3M melanoma
DLD-1 colon = tested on: DLD-1 colon
HT29 colon = tested on: HT29 colon
SK-OV-3 ovarian = tested on: SK-OV-3 ovarian
MOLT-4 leukemia = tested on: MOLT-4 leukemia
SW-620 colon = tested on: SW-620 colon
HCT-15 colon = tested on: HCT-15 colon
A549 NSCLC = tested on: A549 NSCLC
HOP-92 NSCLC = tested on: HOP-92 NSCLC
UO-31 renal = tested on: UO-31 renal
OVCAR-4 ovarian = tested on: OVCAR-4 ovarian
M19-MEL melanoma = tested on: M19-MEL melanoma
K-562 leukemia = tested on: K-562 leukemia
HCT-116 colon = tested on: HCT-116 colon
DMS 114 small cell lung = tested on: DMS 114 small cell lung
TK-10 renal = tested on: TK-10 renal
LXFL 529 NSCLC = tested on: LXFL 529 NSCLC
HCC-2998 colon = tested on: HCC-2998 colon
LOX IMVI melanoma = tested on: LOX IMVI melanoma
SNB-78 CNS = tested on: SNB-78 CNS
NCI-H23 lung = tested on: NCI-H23 lung
SNB-19 CNS = tested on: SNB-19 CNS
HL-60(TB) leukemia = tested on: HL-60(TB) leukemia
SF-295 CNS = tested on: SF-295 CNS
OVCAR-5 ovarian = tested on: OVCAR-5 ovarian
786-0 renal = tested on: 786-0 renal
ACHN renal = tested on: ACHN renal
XF 498 CNS = tested on: XF 498 CNS
HOP-18 NSCLC = tested on: HOP-18 NSCLC
OVCAR-3 ovarian = tested on: OVCAR-3 ovarian
COLO 205 colon = tested on: COLO 205 colon
CCRF-CEM leukemia = tested on: CCRF-CEM leukemia
NCI-H460 lung = tested on: NCI-H460 lung
SK-MEL-2 melanoma = tested on: SK-MEL-2 melanoma
UACC-257 melanoma = tested on: UACC-257 melanoma
UACC-62 melanoma = tested on: UACC-62 melanoma
SK-MEL-5 melanoma = tested on: SK-MEL-5 melanoma
NCI-H226 lung = tested on: NCI-H226 lung
SF-268 CNS = tested on: SF-268 CNS
HOP-62 NSCLC = tested on: HOP-62 NSCLC
OVCAR-8 ovarian = tested on: OVCAR-8 ovarian
SN12C renal = tested on: SN12C renal
KM20L2 colon = tested on: KM20L2 colon
U251 CNS = tested on: U251 CNS
SF-539 CNS = tested on: SF-539 CNS
SNB-75 CNS = tested on: SNB-75 CNS
EKVX NSCLC = tested on: EKVX NSCLC
RPMI-8226 leukemia = tested on: RPMI-8226 leukemia
A498 renal = tested on: A498 renal
M14 melanoma = tested on: M14 melanoma
RXF 393 renal = tested on: RXF 393 renal
HS 578T breast = tested on: HS 578T breast
MDA-MB-435 = tested on: MDA-MB-435
MCF7 breast = tested on: MCF7 breast
DU-145 prostate = tested on: DU-145 prostate
MDA-MB-231 breast = tested on: MDA-MB-231 breast
PC-3 prostate = tested on: PC-3 prostate
BT-549 breast = tested on: BT-549 breast
NCI/ADR-RES ovarian = tested on: NCI/ADR-RES ovarian
MDA-N = tested on: MDA-N
T-47D breast = tested on: T-47D breast
SR leukemia = tested on: SR leukemia

Measured: TGI

CN(C)c1nnnn1-c1c(N)n(C)c(=O)n(C)c1=O
not listed: M14 melanoma | RXF 393 renal | HS 578T breast | MDA-MB-435 | MCF7 breast | DU-145 prostate | MDA-MB-231 breast | PC-3 prostate | BT-549 breast | NCI/ADR-RES ovarian | MDA-N | T-47D breast | SR leukemia
> 100 µM: all other assays above

C#CC[N+](C)(CC#C)CC#C
not listed: HCT-116 colon | HOP-18 NSCLC | NCI-H226 lung | U251 CNS | SF-539 CNS | A498 renal | HS 578T breast | MDA-MB-435 | MCF7 breast | DU-145 prostate | MDA-MB-231 breast | PC-3 prostate | BT-549 breast | NCI/ADR-RES ovarian | MDA-N | T-47D breast | SR leukemia
> 100 µM: all other assays above

C=CCc1cc(-c2cc(CC=C)c(O)c(CN(CC)CC)c2)cc(CN(CC)CC)c1O
32.8 µM: MALME-3M melanoma
64.9 µM: NCI-H460 lung
31.7 µM: LOX IMVI melanoma
76.8 µM: HOP-62 NSCLC
> 86.3 µM: HL-60(TB) leukemia
60.3 µM: SK-MEL-2 melanoma
25.9 µM: SK-MEL-5 melanoma
70.8 µM: NCI-H522 lung
> 88 µM: SF-295 CNS
44.5 µM: RXF-631 renal
> 88.1 µM: RPMI-8226 leukemia
> 92.7 µM: MDA-MB-435
96.9 µM: HOP-92 NSCLC
55.9 µM: HCT-116 colon
76.2 µM: SW-620 colon
82.5 µM: DMS 273 small cell lung
80.6 µM: SK-MEL-28 melanoma
44.3 µM: UO-31 renal
52 µM: RXF 393 renal
> 73.5 µM: MDA-N
68.5 µM: UACC-257 melanoma
51.7 µM: HCT-15 colon
23.4 µM: M14 melanoma
54.3 µM: SF-539 CNS
> 87.7 µM: MDA-MB-231 breast
79.1 µM: CCRF-CEM leukemia
48.5 µM: UACC-62 melanoma
43.8 µM: M19-MEL melanoma
40.9 µM: HT29 colon
> 82.2 µM: COLO 205 colon
52.6 µM: OVCAR-5 ovarian
98.7 µM: NCI-H226 lung
40 µM: KM20L2 colon
70.6 µM: SR leukemia
not listed: XF 498 CNS
> 100 µM: all other assays above

O=C(NCCO)c1ccc([N+](=O)[O-])cc1
not listed: HOP-92 NSCLC | OVCAR-4 ovarian | HCT-116 colon | OVCAR-5 ovarian | ACHN renal | HOP-18 NSCLC | HS 578T breast | MDA-MB-435 | MCF7 breast | DU-145 prostate | MDA-MB-231 breast | PC-3 prostate | BT-549 breast | NCI/ADR-RES ovarian | MDA-N | T-47D breast | SR leukemia
> 100 µM: all other assays above

CCCCC(C)C(OC(=O)CC(CC(=O)O)C(=O)O)C(CC(C)CC(O)CCCCC(O)CC(O)C(C)N)OC(=O)CC(CC(=O)O)C(=O)O (configuration not stated)
not listed: DMS 273 small cell lung | DMS 114 small cell lung | SNB-78 CNS | HS 578T breast | MDA-MB-435 | MCF7 breast | DU-145 prostate | MDA-MB-231 breast | PC-3 prostate | BT-549 breast | NCI/ADR-RES ovarian | MDA-N | T-47D breast
> 100 µM: all other assays above

O=C1C=CC(=C(c2ccc(O)cc2)c2ccc(O)cc2)C=C1
26.4 µM: M14 melanoma
23.4 µM: DLD-1 colon
29.6 µM: RXF-631 renal
29.7 µM: MOLT-4 leukemia | SF-268 CNS
17.7 µM: SK-MEL-2 melanoma
21 µM: SN12C renal | RPMI-8226 leukemia
38.6 µM: HT29 colon
30.5 µM: NCI-H460 lung
13.4 µM: HL-60(TB) leukemia
32.7 µM: CAKI-1 renal
26.1 µM: KM12 colon
25.1 µM: SF-295 CNS
19.8 µM: SK-MEL-5 melanoma
7.54 µM: DMS 114 small cell lung
37.5 µM: NCI-H226 lung
14.2 µM: K-562 leukemia
21.2 µM: NCI-H23 lung
32 µM: A498 renal
32.3 µM: SK-OV-3 ovarian | OVCAR-5 ovarian
30.3 µM: HOP-18 NSCLC
29.3 µM: SNB-19 CNS
53.3 µM: A549 NSCLC
14.5 µM: UACC-62 melanoma
25.2 µM: OVCAR-8 ovarian
16.9 µM: RXF 393 renal
22.7 µM: HCT-116 colon
24.4 µM: XF 498 CNS
10.2 µM: SNB-75 CNS
21.8 µM: NCI-H522 lung
28 µM: IGROV1 ovarian
22.9 µM: LOX IMVI melanoma
30.7 µM: KM20L2 colon
19.9 µM: DMS 273 small cell lung | OVCAR-3 ovarian
28.7 µM: ACHN renal
7.37 µM: SR leukemia
12.2 µM: CCRF-CEM leukemia
27.6 µM: OVCAR-4 ovarian | HCC-2998 colon
21.7 µM: UACC-257 melanoma
23.6 µM: SF-539 CNS
10.8 µM: LXFL 529 NSCLC
17.4 µM: SNB-78 CNS
33.4 µM: TK-10 renal
35.2 µM: HOP-62 NSCLC
25.5 µM: SW-620 colon
26.5 µM: 786-0 renal
22.6 µM: U251 CNS
31.1 µM: UO-31 renal
24.9 µM: MALME-3M melanoma
25.3 µM: SK-MEL-28 melanoma
28.6 µM: HCT-15 colon | EKVX NSCLC
9.27 µM: HOP-92 NSCLC
32.4 µM: COLO 205 colon

COC(=O)C1C=CCON2CCc3c(n(C)c4ccccc34)C12 (configuration not stated)
not listed: HOP-18 NSCLC | UACC-257 melanoma | UACC-62 melanoma | OVCAR-8 ovarian | HS 578T breast | MDA-MB-435 | MCF7 breast | DU-145 prostate | MDA-MB-231 breast | PC-3 prostate | BT-549 breast | NCI/ADR-RES ovarian | MDA-N | T-47D breast
> 100 µM: all other assays above
